Source: US10376520B2, “Methods for the treatment of cardiovascular disorders” (Galapagos NV, priority 2015, dated 2019)

Assays:
Assay type in all cases: in vivo, human
[1] = tested on: RA patients; assay: Disease Activity Score 28 (DAS28(CRP)), Study 2
Source text: As used herein, the term ‘DAS28(CRP)’ refers to a clinical scoring ranging from 2.0 to 10.0 to measure the disease status at a given point in time, and thereby follow the progress and improvement of rheumatoid arthritis in a patient, and includes a 28 tender and swollen joint count, CRP measurement from blood analysis, and a general health assessment on a visual analog scale. A DAS28(CRP) value below 2.6 is indicative of remission, A DAS28(CRP) between 2.6 and 3.2 is indicative of low disease activity, between 3.2 and 5.1 is indicative of moderate disease activity, whereas a DAS28(CRP) above 5.1 is linked to high disease activity. (Wells et al., 2008)
Double-blind, placebo-controlled, monotherapy study in subjects with moderately to severely active RA who have an inadequate response to methotrexate (MTX) (oral or parenteral).
Twelve weeks of treatment with Compound 1 (dosed as a [Compound 1:HCl:3H2O]) at 50 mg, 100 mg, or 200 mg q.d.; or placebo. At Week 12, all subjects on placebo and the subjects on the 50 mg dose who have not achieved 20% improvement in swollen joint count (SJC66) and tender joint count (TJC68) will be assigned to 100 mg q.d. in a blinded fashion and will continue treatment until Week 24. Subjects in the other groups will maintain their randomized treatment until Week 24.
The (DAS28(CRP)) is a system developed and validated by the European League Against Rheumatism (EULAR) to measure the progress and improvement of rheumatoid arthritis and has been extensively validated (Wells et al., 2008). The DAS28(CRP) scoring includes a 28 tender and swollen joint count, CRP measurement from blood analysis, and a general health assessment on a visual analog scale (Fransen et al., 2003).
DAS28(CRP) values range from 2.0 to 10.0, and more particularly reflect the following status: • Remission: DAS28(CRP)≤2.6 • Low Disease activity: 2.6<DAS28(CRP)≤3.2 • Moderate Disease Activity: 3.2<DAS28(CRP)≤5.1 • High Disease Activity: DAS28(CRP)>5.1
In practice, the DAS28(CRP) measurement involves the evaluation 28 different joints including in the measurement (proximal interphalangeal joints (10 joints), metacarpophalangeal joints (10), wrists (2), elbows (2), shoulders (2), and knees (2)). When looking at these joints, both the number of joints with tenderness upon touching and swelling are counted.
Firstly, the patient is asked to make a vertical mark on a 100 mm Visual Analog Scale (VAS) corresponding to their general health or global disease activity. Using an electronic touchscreen, the mark is measured from the left-hand side in mm to obtain the VAS value, which is used in the formula below.
Secondly, a swollen and tender joint examination is then performed on the patient. The swollen and tender joints are recorded. From this examination are obtained the total amount of swollen joints (SJC) and the total amount of tender joints (TJC), which are used in the formula below.
Thirdly, C-reactive protein (CRP) levels (in mg/dL) are measured.
Finally, the values obtained above (VAS, JTC28, SJC28, and CRP) are computed into the following Formula to obtain the DAS28(CRP) score.
The number of subjects (N) provided in each groups corresponds to the number of patients starting the study in each group, and the DAS28 (CRP) data reported below corresponds to the responding patients continuing for the entire 24 weeks on their initial treatment course.

[2] = tested on: RA patients; assay: Plasma CETP concentration (ELISA), Study 4; conditions: for CETP level, 4 weeks CFB: 4 weeks change from baseline
Experimental: (§1) Randomized double-blind, placebo-controlled add on study in subjects with active RA who have an inadequate response to MTX monotherapy, in combination with methotrexate, administered for 4 weeks in the treatment of subjects with active rheumatoid arthritis who have an inadequate response to methotrexate alone.
(§2) Compound 1 (dosed as a [Compound 1:HCl:3H2O]) capsules administered orally in 30 mg, 75 mg, 150 mg, or 300 mg doses per day for 4 weeks.
Plasma CETP concentration was determined using a commercial available ELISA kit from Alpco (26-G Keewaydin Drive, Salem, N.H. 03079 USA) according to manufacturer's instruction. Catalogue number 47-CETH-E01, lot number used: 812RCL.

[3] = tested on: RA patients; assay: Triglycerides level (Selectra autoanalyzer), Study 4; conditions: for Triglycerides level, 4 weeks CFB: 4 weeks change from baseline
Experimental: as §1, §2
Triglycerides, [HDL] cholesterol, and plasma cholesterol were measured on the Selectra autoanalyzer (Sopachem BV, 44-RI Straat 33, 4051 AP Ochten, The Netherlands). All assays were commercially available from DiaSys Diagnostic Systems GmbH, Alte Strasse 9, 65558 Holzheim, Germany.

For `O=C(Nc1nc2cccc(-c3ccc(CN4CCS(=O)(=O)CC4)cc3)n2n1)C1CC1` [Compound 1, cyclopropanecarboxylic acid {5-[4-(1,1-dioxo-thiomorpholin-4-ylmethyl)-phenyl]-[1,2,4]triazolo[1,5-a]pyridin-2yl}-amide], the “DAS28(CRP) mean CFB (LOCF) - over 24 weeks” value ([1]; 50 mg q.d., Week 16) was −1.88, the “DAS28(CRP) mean CFB (LOCF) - over 12 weeks” value ([1]; 50 mg q.d., week 1) was −0.70 and the “DAS28(CRP) mean CFB (LOCF) - over 24 weeks” value ([1]; 50 mg q.d., week 1) was −0.75. For the same molecule, the “DAS28(CRP) mean CFB (LOCF) - over 12 weeks” value ([1]; 50 mg q.d., week 2) was −0.97, the “DAS28(CRP) mean CFB (LOCF) - over 12 weeks” value ([1]; 50 mg q.d., week 4) was −1.37 and the “DAS28(CRP) mean CFB (LOCF) - over 24 weeks” value ([1]; 50 mg q.d., week 12) was −1.75. The “% patients reaching low disease activity and/or remission at week 24 (LOCF)” value ([1]; 100 mg q.d.) was 50%, the “DAS28(CRP) mean CFB (LOCF) - over 12 weeks” value ([1]; 100 mg q.d., week 1) was −0.88 and the “DAS28(CRP) mean CFB (LOCF) - over 24 weeks” value ([1]; 100 mg q.d., week 1) was −0.87. The “DAS28(CRP) mean CFB (LOCF) - over 12 weeks” value ([1]; 100 mg q.d., week 4) was −1.50, the “DAS28(CRP) mean CFB (LOCF) - over 24 weeks” value ([1]; 100 mg q.d., week 12) was −2.04 and the “DAS28(CRP) mean CFB (LOCF) - over 24 weeks” value ([1]; 100 mg q.d., week 16) was −2.39. For the same molecule, the “DAS28(CRP) mean CFB (LOCF) - over 24 weeks” value ([1]; 200 mg q.d., week 8) was −2.23, the “DAS28(CRP) mean CFB (LOCF) - over 24 weeks” value ([1]; 200 mg q.d., week 20) was −2.55 and the “CETP level, 4 weeks CFB” value ([2]; 30 mg q.d.) was 2.4%. For the same molecule, the CETP level, Baseline ([2]; 30 mg q.d.) was 3.2 µg/mL, the CETP level, week 4 ([2]; 30 mg q.d.) was 3.2 µg/mL and the “CETP level, 4 weeks CFB” value ([2]; 75 mg q.d.) was −2.8%. For the same molecule, the CETP level, Baseline ([2]; 75 mg q.d.) was 2.8 µg/mL, the CETP level, week 4 ([2]; 75 mg q.d.) was 2.7 µg/mL and the “CETP level, 4 weeks CFB” value ([2]; 150 mg q.d.) was −11.4%. The CETP level, Baseline ([2]; 150 mg q.d.) was 2.8 µg/mL, the CETP level, week 4 ([2]; 150 mg q.d.) was 2.3 µg/mL and the “CETP level, 4 weeks CFB” value ([2]; 300 mg q.d.) was −10.2%. For the same molecule, the CETP level, Baseline ([2]; 300 mg q.d.) was 2.5 µg/mL, the CETP level, week 4 ([2]; 300 mg q.d.) was 2.2 µg/mL and the “Triglycerides level, 4 weeks CFB” value ([3]; 30 mg q.d.) was 51.7%. The Triglycerides level, Baseline ([3]; 30 mg q.d.) was 1.2 mM, the Triglycerides level, week 4 ([3]; 30 mg q.d.) was 1.7 mM and the “Triglycerides level, 4 weeks CFB” value ([3]; 75 mg q.d.) was 6.6%. For the same molecule, the Triglycerides level, Baseline ([3]; 75 mg q.d.) was 1 mM, the Triglycerides level, week 4 ([3]; 75 mg q.d.) was 1.1 mM and the “Triglycerides level, 4 weeks CFB” value ([3]; 150 mg q.d.) was 93.6%. The Triglycerides level, Baseline ([3]; 150 mg q.d.) was 1.4 mM, the Triglycerides level, week 4 ([3]; 150 mg q.d.) was 2.1 mM and the “Triglycerides level, 4 weeks CFB” value ([3]; 300 mg q.d.) was 23.3%. The Triglycerides level, Baseline ([3]; 300 mg q.d.) was 1.3 mM and the Triglycerides level, week 4 ([3]; 300 mg q.d.) was 1.4 mM.
